# Reference: patent publication US10946019B2, “Nurr1:RXR activating compounds for simultaneous treatment of symptoms and pathology of Parkinson's disease” (priority 2015, dated 2021)
# What was measured:
# [1] = system: c-jun; assay: Midbrain c-jun expression by qPCR after administration to mice; format: in vivo, mouse; conditions: IP compound 3, qPCR 2 hours after administration
# Protocol: FIGS. 69A-69C show the brain penetration, half-life, and c-jun transcriptional activation of compound 3. […] Mice (n=5) were sacrificed 1, 2, 4, 8 and 24 hours after IP administration and brains were dissected 1, 2, 4, 8 and 24 hours post administration. The concentrations of the parent compound in plasma and brain were determined by LC/MSMS.
# (§1) To assess the neuroprotective effect of compound 3, this compound was dosed to wt mice intraperitoneally (IP) at 10 mg/kg injections of compound 3 in Ethanol:PG:Saline 10:30:60. After 2 h and 4 h animals (n=3 per time point) were sacrificed, and their brains obtained. After extraction c-jun and tyrosine hydroxylase (TH) levels in brain extract were determined by qPCR (FIG. 1E, 1F).
# [2] = system: ASYN transgenic mice; assay: Striatal dopamine levels in ASYN transgenic mice by HPLC; format: in vivo, mouse; conditions: single IP 10 mg/kg, vs vehicle
# Protocol: (§2) Given the role of Nurr1:RXRα activation in the transcriptional regulation of DA biosynthesis genes, we tested whether compound 3 could increase DA levels in wt and ASYN transgenic mice (Tofaris et al. J. Neurosci. 26:3942-3950, 2006), which display reduced striatal DA levels after reaching adulthood. […] Aiming to model PD based on human genetic data, we also tested whether compound 3 could increase DA levels in ASYN transgenic mice. A single IP injection of compound 3 (10 mg/kg) was able increase striatal DA (t test p=0.01069) and DA metabolite levels in ASYN transgenics as well (FIG. 75C) in comparison to mice receiving vehicle.
# [3] = system: striatum 5HT levels; assay: Striatal 5-HT and 5-HIAA levels by HPLC-ECD; format: in vivo, mouse; conditions: C57/BL6 mice, IP 20 mg/kg, 4 h post injection
# Protocol: We measured striatal 5-HT levels, and we detected 5-HT and 5-HIAA in wild type C57/BL6 mice. 4 hours after dosing animals were killed by cervical dislocation, brains were removed, and the striata were dissected on ice. The samples were immediately frozen and stored at −80° C. until use. The tissues were processed for the analysis by high performance liquid chromatography (HPLC) with an electrochemical detector (ECD) (Emmanouil et al., 2006). The dissected tissues were weighed, homogenized, and deproteinized in 0.2 N perchloric acid solution containing 7.9 mM Na2S2O5 and 1.3 mM Na2EDTA. The homogenate was centrifuged at 37,000×g for 30 minutes, and the supernatant was stored at −80° C. until assayed. A reverse-phase ion-pair chromatography was used in all analyses, and the mobile phase consisted of an acetonitrile-50 mM phosphate buffer at pH 3.0, containing 5-octylsulfate sodium salt (300 mg/L) as the ion-pair reagent and (20 mg/L) Na2EDTA. Reference standards were prepared in 0.2 N perchloric acid solution containing 7.9 mM Na2S2O5 and 1.3 mM Na2EDTA. Samples were quantified by comparison of the areas under the peaks with those of reference standards using HPLC software (Chromatography Station for Windows™, Watrex International Inc., San Francisco, Calif.) (FIG. 3C).
# [4] = biological target: RXRαVP16 heterodimer chimeras with PPARγGAL4 (Homo sapiens (Human), UniProt P19793); assay: GAL4/VP16 chimera specificity luciferase assay in SHSY-5Y; format: cell-based; conditions: GAL4-responsive luciferase reporter
# Chain of RXRαVP16 heterodimer chimeras with PPARγGAL4 (P19793 whole entry, looked up, change not shown, the tested form may be a part): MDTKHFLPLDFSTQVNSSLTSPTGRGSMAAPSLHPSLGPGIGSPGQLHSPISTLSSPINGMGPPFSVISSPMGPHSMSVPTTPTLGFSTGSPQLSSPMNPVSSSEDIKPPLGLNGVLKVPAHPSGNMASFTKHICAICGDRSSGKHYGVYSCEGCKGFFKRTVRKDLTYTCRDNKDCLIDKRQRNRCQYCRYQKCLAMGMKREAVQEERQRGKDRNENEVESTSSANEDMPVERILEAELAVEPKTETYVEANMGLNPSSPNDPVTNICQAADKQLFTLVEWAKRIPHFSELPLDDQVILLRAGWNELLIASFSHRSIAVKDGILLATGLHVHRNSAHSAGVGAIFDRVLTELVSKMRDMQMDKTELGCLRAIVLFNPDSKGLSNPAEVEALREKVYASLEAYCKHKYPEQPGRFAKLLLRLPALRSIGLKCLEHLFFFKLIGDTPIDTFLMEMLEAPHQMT
# Chain of RXRαVP16 heterodimer chimeras with PPARγGAL4 (P37231 whole entry partner, looked up, the tested form may be a part): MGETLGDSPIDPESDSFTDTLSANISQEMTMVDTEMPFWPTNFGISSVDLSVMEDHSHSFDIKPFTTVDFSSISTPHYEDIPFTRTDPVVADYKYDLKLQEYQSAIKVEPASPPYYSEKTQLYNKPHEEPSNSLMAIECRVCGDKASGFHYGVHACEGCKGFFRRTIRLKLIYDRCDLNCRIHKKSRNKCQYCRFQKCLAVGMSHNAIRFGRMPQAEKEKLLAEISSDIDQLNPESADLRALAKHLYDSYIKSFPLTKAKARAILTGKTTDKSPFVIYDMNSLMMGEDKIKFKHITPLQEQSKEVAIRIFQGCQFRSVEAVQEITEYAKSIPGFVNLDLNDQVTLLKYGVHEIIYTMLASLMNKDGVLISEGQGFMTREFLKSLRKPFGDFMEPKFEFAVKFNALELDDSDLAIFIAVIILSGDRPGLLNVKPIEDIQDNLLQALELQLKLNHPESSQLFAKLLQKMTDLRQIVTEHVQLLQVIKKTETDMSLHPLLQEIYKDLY
# Protocol: (§3) Compound 3 specifically activates Nurr1:RXRα heterodimers over other RXR-containing transcription co-activator complexes. Specificity assays fusing DNA sequences of the gal4 DNA binding domain to the nuclear receptor Ligand-Binding-Domain (LDB) and to vp16 were performed as follows: Human SHSY-5Y cells were cotransfected with 20 ng of MH100-tk -luciferase, 10 ng of CMX-bgal, 20 ng of CMX-GAL4-RXRα-LBD and 20 ng of CMX-VP16-NR-LBD, where NR stands for either Nurr1, VDR, PPARγ. CMX-VP16-VDR-LBD and CMX-VP16-PPARγ-LBD were kindly provided by Dr Makishima ([…]). CMX-VP16-Nurr1-LBD was produced by cloning the Nurr1 LBD in the CMX-VP16 vector using KpnI. More specifically, Nurr1-LBD was isolated by PCR from a vector containing the Nurr1 cDNA using a set of primers flanking the Nurr1 LBD sequence and carrying at both sides the KpnI restriction sites, namely Nurr1 Forward […] (SEQ ID NO: 1) and Nurr1 Reverse […] (SEQ ID NO: 2). To exclude the possibility that compound 3 might transactivate RXRγ:Nurr1 heterodimers, CMX-GAL4-RXRγ-LBD was constructed by cloning the RXRγ LBD that was isolated by PCR from a vector containing the RXRγ cDNA (RIKEN, Tokyo, Japan) using the following Forward and Reverse primers carrying KpnI and NheI restriction sites, respectively, namely RXRγ Forward […] (SEQ ID NO: 3) and RXRγ LBD Reverse […] (SEQ ID NO: 4). 17 hours after transfection the compound was added to the medium at the corresponding concentrations and left for another 12 hours. Then the cells were assayed for luciferase activity normalized to galactosidase activity.
# (§4) To test off-target effects of compound 3 on complexes aside from Nurr1:RXRα heterodimers, we fused the ligand binding domains of Nurr1, RXRα and a variety of related nuclear receptors to GAL4 DNA-binding domain to create chimeric proteins, while the ligand-binding domain of RXRα was also fused with VP16. These molecular chimeras were co-transfected in pairs with the RXRα:VP16 along with a GAL4-responsive luciferase reporter in SHSY-5Y, which were stimulated with compound 3. […] The above experiments indicate the high degree of selectivity of compound 3 and point to its neuroprotective potential.
# [5] = biological target: RXRαGAL4 homodimer chimeras (Homo sapiens (Human), UniProt P19793); assay: as above; format: cell-based; conditions: GAL4-responsive luciferase reporter
# Chain of RXRαGAL4 homodimer chimeras (P19793 whole entry, looked up, change not shown, the tested form may be a part): as the sequence (P19793 whole entry, looked up, change not shown, the tested form may be a part) above
# Chain of RXRαGAL4 homodimer chimeras (P19793 whole entry, looked up, change not shown, the tested form may be a part): as above
# Protocol: as §3, §4
# [6] = biological target: Nurr1GAL4:RXRαVP16 heterodimer chimeras (Homo sapiens (Human), UniProt P19793); assay: as above; format: cell-based; conditions: GAL4-responsive luciferase reporter
# Chain of Nurr1GAL4:RXRαVP16 heterodimer chimeras (P19793 whole entry, looked up, change not shown, the tested form may be a part): as above
# Chain of Nurr1GAL4:RXRαVP16 heterodimer chimeras (P43354 whole entry partner, looked up, the tested form may be a part): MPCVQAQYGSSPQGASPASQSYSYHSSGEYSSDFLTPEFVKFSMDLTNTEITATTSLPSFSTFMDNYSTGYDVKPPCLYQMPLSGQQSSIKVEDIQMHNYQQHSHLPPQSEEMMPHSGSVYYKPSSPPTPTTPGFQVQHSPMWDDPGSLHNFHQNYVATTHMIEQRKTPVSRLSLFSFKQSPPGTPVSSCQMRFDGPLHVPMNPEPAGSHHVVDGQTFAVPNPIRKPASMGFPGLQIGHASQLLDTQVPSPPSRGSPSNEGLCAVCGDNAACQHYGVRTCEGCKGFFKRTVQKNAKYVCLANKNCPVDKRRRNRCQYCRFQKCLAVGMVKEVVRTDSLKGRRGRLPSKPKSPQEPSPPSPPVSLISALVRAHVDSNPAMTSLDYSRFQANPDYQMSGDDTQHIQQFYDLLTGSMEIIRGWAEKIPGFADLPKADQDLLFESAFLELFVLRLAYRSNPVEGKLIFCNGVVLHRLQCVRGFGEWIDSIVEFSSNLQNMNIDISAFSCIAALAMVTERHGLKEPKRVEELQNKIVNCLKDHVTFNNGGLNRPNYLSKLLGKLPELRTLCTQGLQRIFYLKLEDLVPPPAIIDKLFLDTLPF
# Protocol: as §3, §4
# [7] = biological target: RXRαVP16 heterodimer chimeras with VDRGAL4 (Homo sapiens (Human), UniProt P19793); assay: as above; format: cell-based; conditions: GAL4-responsive luciferase reporter
# Chain of RXRαVP16 heterodimer chimeras with VDRGAL4 (P19793 whole entry, looked up, change not shown, the tested form may be a part): as the sequence (P19793 whole entry, looked up, change not shown, the tested form may be a part) above
# Chain of RXRαVP16 heterodimer chimeras with VDRGAL4 (P11473 whole entry partner, looked up, the tested form may be a part): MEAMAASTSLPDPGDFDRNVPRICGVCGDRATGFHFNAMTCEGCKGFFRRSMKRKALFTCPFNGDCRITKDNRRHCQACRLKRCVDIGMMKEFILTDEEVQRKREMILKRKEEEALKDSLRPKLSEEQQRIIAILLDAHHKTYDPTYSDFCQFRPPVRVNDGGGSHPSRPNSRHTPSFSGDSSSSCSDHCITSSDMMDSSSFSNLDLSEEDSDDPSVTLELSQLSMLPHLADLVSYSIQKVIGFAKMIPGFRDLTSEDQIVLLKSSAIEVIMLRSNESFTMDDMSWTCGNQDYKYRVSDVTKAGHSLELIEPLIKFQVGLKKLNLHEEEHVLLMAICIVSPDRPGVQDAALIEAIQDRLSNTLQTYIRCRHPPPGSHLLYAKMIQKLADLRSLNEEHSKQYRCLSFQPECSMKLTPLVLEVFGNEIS
# Protocol: as §3, §4
# [8] = biological target: RXRαVP16 heterodimer chimeras with RXRγGAL4 (Homo sapiens (Human), UniProt P19793); assay: as above; format: cell-based; conditions: GAL4-responsive luciferase reporter
# Chain of RXRαVP16 heterodimer chimeras with RXRγGAL4 (P19793 whole entry, looked up, change not shown, the tested form may be a part): as the sequence (P19793 whole entry, looked up, change not shown, the tested form may be a part) above
# Chain of RXRαVP16 heterodimer chimeras with RXRγGAL4 (P48443 whole entry partner, looked up, the tested form may be a part): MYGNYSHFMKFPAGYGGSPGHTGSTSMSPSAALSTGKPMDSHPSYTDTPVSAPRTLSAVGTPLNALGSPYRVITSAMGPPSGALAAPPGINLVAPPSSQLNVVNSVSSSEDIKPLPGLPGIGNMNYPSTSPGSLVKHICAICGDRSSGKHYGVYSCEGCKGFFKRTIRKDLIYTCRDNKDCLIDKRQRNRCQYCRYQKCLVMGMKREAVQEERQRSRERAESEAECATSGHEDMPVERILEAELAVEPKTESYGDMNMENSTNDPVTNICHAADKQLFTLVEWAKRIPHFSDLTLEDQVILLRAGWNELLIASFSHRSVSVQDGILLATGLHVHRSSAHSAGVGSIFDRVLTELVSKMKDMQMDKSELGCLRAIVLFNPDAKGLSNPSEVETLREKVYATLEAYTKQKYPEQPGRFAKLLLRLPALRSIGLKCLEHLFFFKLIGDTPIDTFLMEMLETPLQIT
# Protocol: as §3, §4
# [9] = system: tyrosine hydroxylase (TH); assay: Midbrain tyrosine hydroxylase expression by qPCR after administration to mice; format: in vivo, mouse; conditions: wt mice, single IP 10 mg/kg, within 4 hours
# Protocol: as §1, §2
compound,measurement,setting,value
"C=CCc1c(N(C)c2ccc(C(=O)O)cc2)nc(-c2ccccc2)nc1C(F)(F)F [Example 3, 4-((5-allyl-2-phenyl-6-(trifluoromethyl)pyrimidin-4-yl)(methyl)amino)benzoic acid]",midbrain c-jun expression,[1],increased
same,striatal DA and DA metabolite levels,[2],increase
same,striatum 5HT levels and 5HT metabolite 5HIAA levels,[3],increased
same,activation of PPARγGAL4:RXRαVP16 chimeras,[4],failed to activate
same,activation of RXRαGAL4 homodimer chimeras,[5],failed to activate
same,activation of Nurr1GAL4:RXRαVP16 heterodimer chimeras,[6],strongly activated
same,activation of VDRGAL4:RXRαVP16 chimeras,[7],failed to activate
same,activation of RXRγGAL4:RXRαVP16 chimeras,[8],failed to activate
same,TH gene expression in the midbrain,[9],increased
